# According to PubChem BioAssay (NCI):
#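 96-well plates; 48 h exposure; 5 concentrations. Endpoints by linear interpolation between flanking doses. Not reached: highest tested concentration assigned. The concentration for full growth arrest is given as TGI.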
# Key:
# Experiment in all cases: NCI-60 cell line screen, 48 h
# [1] = test system: ACHN renal
# [2] = test system: NCI-H460 lung
# [3] = test system: OVCAR-5 ovarian
# [4] = test system: UACC-62 melanoma
# [5] = test system: SNB-78 CNS
# [6] = test system: DMS 273 small cell lung
# [7] = test system: A549 NSCLC
# [8] = test system: A498 renal
# [9] = test system: M14 melanoma
# [10] = test system: OVCAR-8 ovarian
# [11] = test system: SK-OV-3 ovarian
# [12] = test system: OVCAR-3 ovarian
# [13] = test system: UACC-257 melanoma
# [14] = test system: SK-MEL-28 melanoma
# [15] = test system: SK-MEL-2 melanoma
# [16] = test system: SN12C renal
# [17] = test system: MOLT-4 leukemia
# [18] = test system: HOP-92 NSCLC
# [19] = test system: SNB-75 CNS
# [20] = test system: SK-MEL-5 melanoma
# [21] = test system: OVCAR-4 ovarian
# [22] = test system: M19-MEL melanoma
# [23] = test system: CAKI-1 renal
# [24] = test system: NCI-H522 lung
# [25] = test system: MALME-3M melanoma
# [26] = test system: SF-539 CNS
# [27] = test system: SF-268 CNS
# [28] = test system: HT29 colon
# [29] = test system: COLO 205 colon
# [30] = test system: KM12 colon
# [31] = test system: LXFL 529 NSCLC
# [32] = test system: SF-295 CNS
# [33] = test system: KM20L2 colon
# [34] = test system: IGROV1 ovarian
# [35] = test system: SW-620 colon
# [36] = test system: SNB-19 CNS
# [37] = test system: HOP-62 NSCLC
# [38] = test system: RPMI-8226 leukemia
# [39] = test system: HCC-2998 colon
# [40] = test system: HOP-18 NSCLC
# [41] = test system: UO-31 renal
# [42] = test system: DMS 114 small cell lung
# [43] = test system: K-562 leukemia
# [44] = test system: HL-60(TB) leukemia
# [45] = test system: XF 498 CNS
# [46] = test system: CCRF-CEM leukemia
# [47] = test system: TK-10 renal
# [48] = test system: RXF 393 renal
# [49] = test system: DLD-1 colon
# [50] = test system: EKVX NSCLC
# [51] = test system: RXF-631 renal
# [52] = test system: 786-0 renal
# [53] = test system: HCT-116 colon
# [54] = test system: LOX IMVI melanoma
# [55] = test system: SR leukemia
# [56] = test system: HCT-15 colon
# [57] = test system: U251 CNS
# [58] = test system: NCI-H23 lung
smiles,measurement,setting,value
FC(F)(F)c1nc(-c2ccccc2)oc1Sc1nnc(Sc2oc(-c3ccccc3)nc2C(F)(F)F)s1,TGI,[1],> 100 µM
same,TGI,[2],> 100 µM
same,TGI,[3],> 100 µM
same,TGI,[4],> 65.8 µM
same,TGI,[5],> 74 µM
same,TGI,[6],> 100 µM
same,TGI,[7],> 100 µM
same,TGI,[8],> 100 µM
same,TGI,[9],28 µM
same,TGI,[10],59.8 µM
same,TGI,[11],> 100 µM
same,TGI,[12],> 57.7 µM
same,TGI,[13],> 100 µM
same,TGI,[14],> 93.8 µM
same,TGI,[15],> 100 µM
same,TGI,[16],> 100 µM
same,TGI,[17],17 µM
same,TGI,[18],63.4 µM
same,TGI,[19],> 100 µM
same,TGI,[20],33.9 µM
same,TGI,[21],28 µM
same,TGI,[22],> 57.8 µM
same,TGI,[23],> 78.7 µM
same,TGI,[24],36.8 µM
same,TGI,[25],34.4 µM
same,TGI,[26],> 100 µM
same,TGI,[27],> 100 µM
same,TGI,[28],> 100 µM
same,TGI,[29],> 69.8 µM
same,TGI,[30],> 100 µM
same,TGI,[31],> 64.6 µM
same,TGI,[32],> 100 µM
same,TGI,[33],> 100 µM
same,TGI,[34],49.3 µM
same,TGI,[35],> 100 µM
same,TGI,[36],> 100 µM
same,TGI,[37],> 100 µM
same,TGI,[38],> 74.6 µM
same,TGI,[39],> 100 µM
same,TGI,[40],> 100 µM
same,TGI,[41],> 100 µM
same,TGI,[42],21.7 µM
same,TGI,[43],> 64.5 µM
same,TGI,[44],19.7 µM
same,TGI,[45],26.7 µM
same,TGI,[46],34.8 µM
same,TGI,[47],> 100 µM
same,TGI,[48],49.3 µM
same,TGI,[49],> 100 µM
same,TGI,[50],> 80.7 µM
same,TGI,[51],> 84.1 µM
same,TGI,[52],74 µM
same,TGI,[53],> 100 µM
same,TGI,[54],24.9 µM
same,TGI,[55],41 µM
same,TGI,[56],> 59 µM
same,TGI,[57],> 57.2 µM
same,TGI,[58],67.3 µM
